Common to all, as to format: functional
Assay [1] relates to Enterobacter cloacae. As to the kind of experiment: Antimicrobial activity against Enterobacter cloacae with derepressed AmpC beta-lactamsae assessed as susceptible isolate by broth microdilution method in presence of Tazobactam. (In broth dilution the organism is exposed to a series of concentrations in liquid medium.)
The subject of assay [2] is Enterobacter cloacae. The experiment in a line: Antimicrobial activity against Enterobacter cloacae with nonderepressed AmpC beta-lactamsae assessed as resistant isolate by broth microdilution method in presence of Tazobactam.
The test system of assay [3] is Enterobacter cloacae. As to the kind of experiment: Antimicrobial activity against Enterobacter cloacae with derepressed AmpC beta-lactamsae assessed as intermediate isolate by broth microdilution method in presence of Tazobactam.
Assay [4] relates to Escherichia coli. The experiment in a line: Antimicrobial activity against Non-ESBL Escherichia coli assessed as intermediate isolate by broth microdilution method in presence of Tazobactam.
The test system of assay [5] is Pseudomonas aeruginosa. As to the kind of experiment: Antimicrobial activity against imipenem non-susceptible Pseudomonas aeruginosa assessed as intermediate isolate by broth microdilution method in presence of Tazobactam.
Assay [6] deals with Serratia marcescens. As to the kind of experiment: Antimicrobial activity against Ceftazidime non-susceptible Serratia marcescens by broth microdilution method in presence of tazobactam.
In assay [7] the test system is Citrobacter. The experiment in a line: Antimicrobial activity against Citrobacter with derepressed AmpC beta-lactamsae by broth microdilution method in presence of Tazobactam.
Assay [8] has as its system Enterobacter cloacae. As to the kind of experiment: Antimicrobial activity against Enterobacter cloacae with nonderepressed AmpC beta-lactamsae assessed as intermediate isolate by broth microdilution method in presence of Tazobactam.
Assay [9] deals with Pseudomonas aeruginosa. As to the kind of experiment: Antimicrobial activity against imipenem susceptible Pseudomonas aeruginosa assessed as intermediate isolate by broth microdilution method in presence of Tazobactam.
The subject of assay [10] is Proteus mirabilis. The experiment in a line: Antimicrobial activity against ESBL producing Proteus mirabilis assessed as susceptible isolate by broth microdilution method in presence of Tazobactam.
Assay [11] has as its system Citrobacter. As to the kind of experiment: Antimicrobial activity against Citrobacter with nonderepressed AmpC beta-lactamsae assessed as intermediate isolate by broth microdilution method in presence of Tazobactam.
For assay [12], the system named is Enterobacteriaceae. As to the kind of experiment: Antimicrobial activity against ceftazidime-susceptible Enterobacteriaceae assessed as intermediate isolate by broth microdilution method in presence of Tazobactam.
Assay [13] concerns Acinetobacter. As to the kind of experiment: Antimicrobial activity against imipenem susceptible Acinetobacter by broth microdilution method in presence of Tazobactam.
Assay [14] deals with Acinetobacter. The experiment in a line: Antimicrobial activity against imipenem non-susceptible Acinetobacter by broth microdilution method in presence of Tazobactam.
Assay [15] concerns Acinetobacter. As to the kind of experiment: Antimicrobial activity against imipenem susceptible Acinetobacter assessed as susceptible isolate by broth microdilution method in presence of Tazobactam.
Assay [16] relates to Acinetobacter. The experiment in a line: Antimicrobial activity against imipenem non-susceptible Acinetobacter assessed as intermediate isolate by broth microdilution method in presence of Tazobactam.
Assay [17] has as its system Acinetobacter. As to the kind of experiment: Antimicrobial activity against imipenem susceptible Acinetobacter assessed as resistant isolate by broth microdilution method in presence of Tazobactam.
Assay [18] has as its system Acinetobacter. As to the kind of experiment: Antimicrobial activity against imipenem non-susceptible Acinetobacter assessed as resistant isolate by broth microdilution method in presence of Tazobactam.
Assay [19] deals with Citrobacter. The experiment in a line: Antimicrobial activity against Citrobacter with derepressed AmpC beta-lactamsae assessed as resistant isolate by broth microdilution method in presence of Tazobactam.
The test system of assay [20] is Escherichia coli. The experiment in a line: Antimicrobial activity against ESBL producing Escherichia coli assessed as resistant isolate by broth microdilution method in presence of Tazobactam.
For assay [21], the system named is Proteus mirabilis. The experiment in a line: Antimicrobial activity against Non-ESBL Proteus mirabilis assessed as intermediate isolate by broth microdilution method in presence of Tazobactam.
Assay [22] concerns Serratia marcescens. As to the kind of experiment: Antimicrobial activity against Ceftazidime non-susceptible Serratia marcescens assessed as intermediate isolate by broth microdilution method in presence of tazobactam.
Assay [23] concerns Enterobacteriaceae. As to the kind of experiment: Antimicrobial activity against ceftazidime-susceptible Enterobacteriaceae by broth microdilution method in presence of Tazobactam.
For assay [24], the system named is Pseudomonas aeruginosa. As to the kind of experiment: Antimicrobial activity against ceftazidime susceptible Pseudomonas aeruginosa by broth microdilution method in presence of Tazobactam.
For assay [25], the system named is Enterobacter cloacae. The experiment in a line: Antimicrobial activity against Enterobacter cloacae with derepressed AmpC beta-lactamsae by broth microdilution method in presence of Tazobactam.
For assay [26], the system named is Serratia marcescens. The experiment in a line: Antimicrobial activity against Ceftazidime susceptible Serratia marcescens assessed as intermediate isolate by broth microdilution method in presence of tazobactam.
The test system of assay [27] is Serratia marcescens. The experiment in a line: Antimicrobial activity against ceftazidime non-susceptible Serratia marcescens assessed as susceptible isolate by broth microdilution method in presence of Tazobactam.
Assay [28] concerns Pseudomonas aeruginosa. As to the kind of experiment: Antimicrobial activity against Pseudomonas aeruginosa isolated from ICU patient assessed as resistant isolate by broth microdilution method in presence of Tazobactam.
In assay [29] the test system is Pseudomonas aeruginosa. The experiment in a line: Antimicrobial activity against imipenem susceptible Pseudomonas aeruginosa by broth microdilution method in presence of Tazobactam.
The subject of assay [30] is Klebsiella pneumoniae. The experiment in a line: Antimicrobial activity against ESBL producing Klebsiella pneumoniae assessed as intermediate isolate by broth microdilution method in presence of Tazobactam.
Assay [31] has as its system Proteus mirabilis. As to the kind of experiment: Antimicrobial activity against ESBL producing Proteus mirabilis by broth microdilution method in presence of Tazobactam.
The test system of assay [32] is Acinetobacter. The experiment in a line: Antimicrobial activity against Acinetobacter assessed as resistant isolate by broth microdilution method.
Assay [33] deals with Klebsiella pneumoniae. The experiment in a line: Antimicrobial activity against Klebsiella pneumoniae assessed as resistant isolate by broth microdilution method.
The subject of assay [34] is Klebsiella pneumoniae. The experiment in a line: Antimicrobial activity against ESBL producing Klebsiella pneumoniae assessed as resistant isolate by broth microdilution method.
The subject of assay [35] is Serratia marcescens. As to the kind of experiment: Antimicrobial activity against Serratia marcescens assessed as resistant isolate by broth microdilution method.
Assay [36] has as its system Staphylococcus. The experiment in a line: Antimicrobial activity against methicillin-susceptible coagulase-negative Staphylococcus assessed as susceptible isolate by broth microdilution method.
Assay [37] has as its system Acinetobacter. The experiment in a line: Antimicrobial activity against Acinetobacter assessed as intermediate isolate by broth microdilution method.
The test system of assay [38] is Proteus mirabilis. As to the kind of experiment: Antimicrobial activity against Proteus mirabilis assessed as intermediate isolate by broth microdilution method.
For assay [39], the system named is Klebsiella pneumoniae. As to the kind of experiment: Antimicrobial activity against Non-ESBL Klebsiella pneumoniae assessed as resistant isolate by broth microdilution method.
Assay [40] has as its system Escherichia coli. As to the kind of experiment: Antimicrobial activity against Escherichia coli assessed as intermediate isolate by broth microdilution method.
The subject of assay [41] is Streptococcus pneumoniae. The experiment in a line: Antimicrobial activity against […] assessed as susceptible isolate by broth microdilution method.
Assay [42] has as its system Serratia marcescens. The experiment in a line: Antimicrobial activity against Serratia marcescens assessed as intermediate isolate by broth microdilution method.
The subject of assay [43] is Acinetobacter. As to the kind of experiment: Antimicrobial activity against imipenem susceptible Acinetobacter assessed as resistant isolate by broth microdilution method.
Assay [44] deals with Enterobacter cloacae. As to the kind of experiment: Antimicrobial activity against Enterobacter cloacae assessed as intermediate isolate by broth microdilution method.
Assay [45] relates to Proteus mirabilis. The experiment in a line: Antimicrobial activity against ESBL producing Proteus mirabilis assessed as resistant isolate by broth microdilution method.
Assay [46] relates to Escherichia coli. The experiment in a line: Antimicrobial activity against ESBL producing Escherichia coli assessed as resistant isolate by broth microdilution method.
A further assay has as its system Staphylococcus aureus. As to the kind of experiment: Antimicrobial activity against methicillin-resistant Staphylococcus aureus by broth microdilution method.
The subject of assay [47] is Staphylococcus. The experiment in a line: Antimicrobial activity against methicillin-resistant coagulase-negative Staphylococcus by broth microdilution method.
In assay [48] the test system is Streptococcus pneumoniae. As to the kind of experiment: Antimicrobial activity against penicillin-intermediate Streptococcus pneumoniae by broth microdilution method.
The subject of assay [49] is Proteus mirabilis. As to the kind of experiment: Antimicrobial activity against Proteus mirabilis assessed as resistant isolate by broth microdilution method.

≈ marks a conversion by molar mass, not a printed value. Some results are limits rather than exact numbers.

Consider `CCN1CCN(C(=O)N[C@@H](C(=O)N[C@@H]2C(=O)N3[C@@H]2SC(C)(C)[C@@H]3C(=O)O)c2ccccc2)C(=O)C1=O` [PIPERACILLIN], for which the Activity with Enterobacter cloacae [1] came to 5.8%; with Enterobacter cloacae [2], 3.5%; with Enterobacter cloacae [3] it was 11.7%; in the assay with Escherichia coli [4], 3.2%; in the assay on Pseudomonas aeruginosa [5] it was 0%; with Enterobacter cloacae [8], 3.2%. The Activity in the assay with Pseudomonas aeruginosa [9] was found to be 0%; in the assay with Proteus mirabilis [10], 100%; in the assay on Citrobacter [11], 3.7%; with Enterobacteriaceae [12], 2.3%; with Acinetobacter [15], 52.1%; with Acinetobacter [16], 3.9%. Moreover, the Activity with Acinetobacter [17] worked out at 29.8%; in the assay with Acinetobacter [18] it was 96.1%; in the assay on Citrobacter [19] it was 67.3%; with Escherichia coli [20], 30%; in the assay on Proteus mirabilis [21], 0.3%; in the assay on Serratia marcescens [22], 30%. In addition, the Activity with Serratia marcescens [26] came out at 4.4%; in the assay on Serratia marcescens [27] it was 20%; with Pseudomonas aeruginosa [28], 21.6%; in the assay on Klebsiella pneumoniae [30], 11.4%. The MIC50 (as a rule, an inhibitory concentration at the 50% level, which refers to growth in some studies and to a panel of isolates in others) is 64 µg/mL in the assay with Serratia marcescens [6]; 128 µg/mL in the assay on Citrobacter [7]; 16 µg/mL in the assay with Acinetobacter [13]; more than 128 µg/mL in the assay with Acinetobacter [14]; 4 µg/mL in the assay with Enterobacteriaceae [23]; 16 µg/mL with Pseudomonas aeruginosa [24]. Moreover, the MIC50 in the assay with Enterobacter cloacae [25] is more than 128 µg/mL; in the assay with Pseudomonas aeruginosa [29] it was 16 µg/mL. In addition, the MIC90 (commonly the lowest concentration that inhibits either 90% of growth or 90% of the strains tested, depending on the study) was more than 128 µg/mL in the assay with Serratia marcescens [6]; more than 128 µg/mL in the assay on Citrobacter [7]; more than 128 µg/mL in the assay on Acinetobacter [13]; more than 128 µg/mL in the assay with Acinetobacter [14]; 8 µg/mL with Enterobacteriaceae [23]; 64 µg/mL in the assay with Pseudomonas aeruginosa [24]. Further, the MIC90 was more than 128 µg/mL in the assay with Enterobacter cloacae [25] and 64 µg/mL in the assay on Pseudomonas aeruginosa [29]. Further, the MIC – broadly, the least concentration at which growth counts as inhibited – in the assay with Proteus mirabilis [31] was found to be 0.5 µg/mL.

Regarding `C[C@@H](O)[C@H]1C(=O)N2C(C(=O)O)=C(S[C@@H]3CN[C@H](C(=O)N(C)C)C3)[C@H](C)[C@H]12` [MEROPENEM], the Activity was determined as 18% with Acinetobacter [32]; 0.3% in the assay on Klebsiella pneumoniae [33]; 4.5% with Klebsiella pneumoniae [34]; 0.8% with Serratia marcescens [35]; 99.4% in the assay with Staphylococcus [36]; 1.4% in the assay on Acinetobacter [37]. For the same compound, the Activity in the assay on Proteus mirabilis [38] is given as 0%; with Klebsiella pneumoniae [39], 0.2%; in the assay with Escherichia coli [40] it was 0%; in the assay on Streptococcus pneumoniae [41], 100%; in the assay on Serratia marcescens [42], 0%; with Acinetobacter [43], 0.4%. Also, in the assay with Enterobacter cloacae [44], the Activity is recorded as 0.4%.

With `CC(C)(O/N=C(\C(=O)N[C@@H]1C(=O)N2C(C(=O)[O-])=C(C[n+]3ccccc3)CS[C@H]12)c1csc(N)n1)C(=O)O` [CEFTAZIDIME], the Activity in the assay with Proteus mirabilis [45] is on record as 0%; in the assay with Klebsiella pneumoniae [34], 95.5%; with Klebsiella pneumoniae [39] it was 0.6%; with Escherichia coli [46], 56.7%; in the assay on Acinetobacter [43] it was 27.7%.

As to `C[C@@H](O)[C@H]1C(=O)N2C(C(=O)O)=C(SCCNC=N)C[C@H]12` [IMIPENEM ANHYDROUS], the MIC50 amounted to 0.25 µg/mL (≈ 0.835 µM) against Staphylococcus aureus, 0.25 µg/mL (≈ 0.835 µM) against Staphylococcus [47] and 0.03 µg/mL (≈ 0.1 µM) against Streptococcus pneumoniae [48]. Moreover, the MIC90 in the assay on Staphylococcus aureus turned out to be 8 µg/mL (≈ 26.7 µM); with Staphylococcus [47] it was 16 µg/mL (≈ 53.4 µM); in the assay on Streptococcus pneumoniae [48] it was 0.25 µg/mL (≈ 0.835 µM). Besides, the Activity is reported as 17% in the assay with Acinetobacter [32]; 0.8% with Serratia marcescens [35]; 99.4% in the assay on Staphylococcus [36]; 0.7% with Acinetobacter [37]; 2.5% with Proteus mirabilis [38]; 0% in the assay with Escherichia coli [40]. The Activity worked out at 0.2% in the assay with Proteus mirabilis [49], 99.9% in the assay on Streptococcus pneumoniae [41], 0.3% with Serratia marcescens [42] and 0.4% in the assay with Enterobacter cloacae [44].

As for `C[C@@H](O)[C@H]1C(=O)N2C(C(=O)O)=C(S[C@@H]3CN[C@H](CNS(N)(=O)=O)C3)[C@H](C)[C@H]12` [DORIPENEM], the MIC50 came to 0.5 µg/mL (≈ 1.19 µM) in the assay with Staphylococcus aureus, 1 µg/mL (≈ 2.38 µM) against Staphylococcus [47] and 0.03 µg/mL (≈ 0.0713 µM) against Streptococcus pneumoniae [48]. Besides, the MIC90 in the assay on Staphylococcus aureus was 8 µg/mL (≈ 19 µM); in the assay on Staphylococcus [47], 8 µg/mL (≈ 19 µM); against Streptococcus pneumoniae [48], 0.5 µg/mL (≈ 1.19 µM).

Source of the values: ChEMBL document CHEMBL1275550, “In vitro activity of doripenem, a carbapenem for the treatment of challenging infections caused by gram-negative bacteria, against recent clinical isolates from the United States” (2008).
